Test results published in patent US4486419A, “5,2',3',4',4",6"-Hexadeoxykanamycin and its 1-N-acylated derivative” (Zaidan Hojin Biseibutsu Kagaku Kenkyu Kai, priority 1982, dated 1984).
Converted amounts (≈) assume the structure as drawn. Read-outs that look alike come from different tables or passages of the source.

Legend:
Assay type in all cases: cell-based
[1] = tested on: Micrococcus luteus PCI 1001; details: PCI1001, nutrient agar, 37° C., 18 hours
[2] = tested on: Bacillus subtilis PCI 219; details: PCI219, nutrient agar, 37° C., 18 hours
[3] = tested on: Mycobacterium smegmatis ATCC 607; details: Mycolicibacterium smegmatis, ATCC607; nutrient agar, 37° C., 18 hours
[4] = tested on: Escherichia coli K-12 ML 1410; details: K12ML1410, nutrient agar, 37° C., 18 hours
[5] = tested on: Escherichia coli K-12 LA 290 R56; experiment: microbe, parasite or virus in culture; details: K12LA290R56, 18 h
[6] = tested on: Escherichia coli JR255; experiment: microbe, parasite or virus in culture; details: JR255, 18 h
[7] = tested on: Klebsiella pneumoniae PCI 602; details: PCI602, nutrient agar, 37° C., 18 hours
[8] = tested on: Pseudomonas aeruginosa H9
[9] = tested on: Pseudomonas aeruginosa TI-13; details: TI13, nutrient agar, 37° C., 18 hours
[10] = tested on: Pseudomonas aeruginosa PST1; details: nutrient agar, 37° C., 18 hours
[11] = tested on: Pseudomonas aeruginosa ROS134/PU21; details: ROS134/PU21, 18 h
[12] = tested on: bacterial strains; experiment: antibacterial activity (in words)
[13] = tested on: kanamycin-resistant bacteria; experiment: antibacterial activity against kanamycin-resistant bacteria (in words); details: even with the kanamycin-resistant bacteria

| SMILES | MIC [1] | MIC [2] | MIC [3] | MIC [4] | MIC [5] | MIC [6] | MIC [7] | MIC ([8]; H9, 18 h) | MIC [9] | MIC [10] | MIC [11] | antibacterial activity [12] | MIC ([8]; H9, nutrient agar, 37° C., 18 hours, read-out: MIC) | antibacterial activity compared with amikacin [13] |
| --- | --- | --- | --- | --- | --- | --- | --- | --- | --- | --- | --- | --- | --- | --- |
| C[C@@H]1C[C@H](N)[C@@H](O)[C@@H](O[C@@H]2C[C@H](O[C@@H]3CCC[C@@H](CN)O3)[C@@H](N)C[C@H]2N)O1 [Hexadeoxykanamycin, 5,2',3',4',4",6"-hexadeoxykanamycin] | 12.5 µg/mL (≈ 32.2 µM) | 0.78 µg/mL (≈ 2.01 µM) | 0.78 µg/mL (≈ 2.01 µM) | 3.13 µg/mL (≈ 8.06 µM) | 12.5 µg/mL (≈ 32.2 µM) | 1.56 µg/mL (≈ 4.02 µM) | 1.56 µg/mL (≈ 4.02 µM) | 100 µg/mL (≈ 257 µM) | 50 µg/mL (≈ 129 µM) | > 100 µg/mL | > 100 µg/mL | antibacterial activity as high as that of the parent kanamycin A | – | – |
| NCC[C@H](O)C(=O)N[C@@H]1C[C@H](N)[C@@H](O[C@H]2O[C@H](CN)[C@@H](O)[C@H](O)[C@H]2O)[C@H](O)[C@H]1O[C@H]1O[C@H](CO)[C@@H](O)[C@H](N)[C@H]1O [Amikacin, 1-N-[(S)-4-amino-2-hydroxybutyryl]kanamycin A, reference compound] | 3.13 µg/mL (≈ 5.34 µM) | 0.39 µg/mL (≈ 0.666 µM) | 0.78 µg/mL (≈ 1.33 µM) | 1.56 µg/mL (≈ 2.66 µM) | 0.78 µg/mL (≈ 1.33 µM) | 0.78 µg/mL (≈ 1.33 µM) | 0.78 µg/mL (≈ 1.33 µM) | – | 3.13 µg/mL (≈ 5.34 µM) | 12.5 µg/mL (≈ 21.3 µM) | 100 µg/mL (≈ 171 µM) | – | 6.25 µg/mL (≈ 10.7 µM) | – |
| C[C@@H]1C[C@H](N)[C@@H](O)[C@@H](O[C@@H]2C[C@H](O[C@@H]3CCC[C@@H](CN)O3)[C@@H](N)C[C@H]2NC(=O)[C@@H](O)CCN)O1 [Hexadeoxyamikacin, 1-N-[(S)-4-amino-2-hydroxybutyryl]-5,2',3',4',4",6"-hexadeoxykanamycin] | 6.25 µg/mL (≈ 12.8 µM) | 0.78 µg/mL (≈ 1.59 µM) | 1.56 µg/mL (≈ 3.19 µM) | 3.13 µg/mL (≈ 6.39 µM) | 1.56 µg/mL (≈ 3.19 µM) | 0.78 µg/mL (≈ 1.59 µM) | 1.56 µg/mL (≈ 3.19 µM) | 50 µg/mL (≈ 102 µM) | 12.5 µg/mL (≈ 25.5 µM) | 50 µg/mL (≈ 102 µM) | > 100 µg/mL | – | – | antibacterial activity as high as that of amikacin |
